This note sets out measurements from US12557829B2, “Liquid-phase, supplementary feed composition containing coenzyme Q10” (priority 2021, dated 2026).

The data set in a line: Single intravenous administration, plasma concentration of coenzyme Q10. The settings on record: rat, 6 mg/kg, rats. The data set is classed as in vivo. On the procedure:
The supplementary feed composition containing coenzyme Q10 was orally administered to rats for 5 consecutive days, and systemic absorption was examined after oral administration on the 5th day. In addition, a single intravenous injection test was performed to evaluate the absorption rate (bioavailability).
Single Intravenous Administration Experiment
Plasma concentration measurement after intravenous coenzyme Q10 administration: dose (6 mg/kg), measured up to 6 hours
Plasma Collection after Intravenous Administration
After lightly anesthetizing the rats with ether, a polyethylene tube (PE-50, Intramedic, Clay Adams, USA) was intubated into the left femoral artery and vein. After the rats recovered from anesthesia, coenzyme Q10 was intravenously administered (6 mg/kg), and blood was collected from the left femoral artery at 0 (blank), 1, 5, 10, 15, 30, 60, 90, 120 and 180 minutes. 250 μl of blood was received in a microtube, and 100 μl of plasma obtained after centrifugation was used for quantification.
Quantification of the Concentration of Coenzyme Q10 in Plasma
For coenzyme Q10, a calibration curve was prepared in which a good linear relationship (R=0.999) was established in the concentration range of 0.05 μg/mL to 10 μg/mL. […] 100 μL of this was taken and quantified by the HPLC assay described above.

Where two headings read alike, the source gives them in different places.

`COC1=C(OC)C(=O)C(C/C=C(\C)CC/C=C(\C)CC/C=C(\C)CC/C=C(\C)CC/C=C(\C)CC/C=C(\C)CC/C=C(\C)CC/C=C(\C)CC/C=C(\C)CCC=C(C)C)=C(C)C1=O` [coenzyme Q10, 2,3-dimethoxy-5-methyl-6-decaprenyl-1,4-benzoquinone]: the half-life reads like this: (read-out: half-life (t1/2,α) in the pre-distribution phase (α phase)) 3.3 min; (read-out: half-life (t1/2,β) in the post-distribution phase (β phase)) 52 min.
